From patent publication US20220127297A1, “Novel Antibacterial 3"-Derivatives Of 4,6-Disubstituted 2,5-Dideoxystreptamine Aminoglycoside Antibiotics” (AGILeBiotics B.V., priority 2018, published 2022) come the findings set out here.

Series [1] has as its system Klebsiella pneumoniae ATCC BAA-1705. The following applies: for Avg. Log CFU/g thigh: BID; for decrease in CFU number in thighs in comparison to the vehicle control group: doses of 16 and 64 mg/kg (SC, BID). Here is the method: 4.2 Murine Neutropenic Thigh Model of Infection (Kiebsiella Pneumoniae ATCC BAA-1705)
All animal-related research is conducted in accordance with 2010/63/EU and National legislation regulating the use of laboratory animals in scientific research and for other purposes (Official Gazette 55/13).
In vivo studies and CFU determination were performed by Fidelta (Zagreb, Croatia) and all mice were obtained from Charles River Laboratories (Italy).
Two compounds, i.e. ABX5006 and ABX5020, and a comparator antibiotic (amikacin sulfate; Cat. No. 01693, Chem-Impex) were tested in a mouse model of thigh infection with Klebsiella pneumoniae ATCC BAA-1705.
Neutropenic thigh model: Pathogen-free male CD-1 mice (6 mice per dosing group) weighing 36±4 g were used. Prior to infection, neutropenia was induced in mice by two cyclophosphamide doses applied intraperitoneally four days (150 mg/kg body weight) and one day prior to infection (100 mg/kg body weight). […] For subcutaneous treatment, pre-weighed test item powder (ABX5006) was dissolved in PBS and the pH was adjusted (to reach a near-neutral pH), to reach a final concentration of 6.4 mg/mL for a dose of 64 mg/kg (group 3) or 1.6 mg/mL for a dose of 16 mg/kg (group 2). For subcutaneous treatment, pre-weighed test item powder (ABX5020) was dissolved in PBS and the pH was adjusted (to reach a near-neutral pH), to reach a final concentration of 6.4 mg/mL for a dose of 64 mg/kg (group 7) or 1.6 mg/mL for a dose of 16 mg/kg (group 6). For subcutaneous treatment, pre-weighed reference compound (amikacin sulfate) was dissolved in PBS and the pH was adjusted (to reach a near-neutral pH), to reach a final concentration of 6.4 mg/mL for a dose of 64 mg/kg (group 5) or 1.6 mg/mL for a dose of 16 mg/kg (group 4). Each mouse was infected with Klebsiella pneumoniae ATCC BAA-1705 (1.18×10^6/thigh), under light ketamine/xylazine anesthesia, by intramuscular administration of 0.10 mL of a suspension containing bacteria into both thighs. Animals were dosed subcutaneously twice with 8 h interval. Treatment was started 1 h following infection either with Vehicle—PBS (group 1) or amikacin sulfate (groups 4-5) or test compounds (groups 2-3 and 6-7) as described above. All Mice were overdosed with ketamine/xylazine 24 hours post infection. Thighs were aseptically removed and separately placed into sterile Precellys test tubes containing 2 mL of sterile PBS. Precellys test tubes were weighed and the weight was recorded prior and post-sampling. Each thigh was homogenized in sterile PBS using Ultraturax, IKA. After homogenizing, a serial dilution of the homogenates was used for CFU determination. A CFU count of each thigh acted as a single result.
Supplies/Chemicals. BBL™ Mueller Hinton Broth (REF 275730, Becton Dickinson); BBL™ Mueller Hinton Agar 2 (REF 211438, Becton Dickinson); PBS (Cat. No. P4417, Sigma); Saline (Serial No. 1422115, HZ™); Xylazine 2% (Alfasan, International B.V.); Narkamon (100 mg/mL ketamine chloride, Bioveta); Cyclophosphamide monohydrate (No. C2236, TCI); Sterile, single use needles (BD MICROLANCE Kanuele, 27 G, REF 300220, Becton Dickinson); 5 mL syringes (BD Plastipak, REF 300013, Becton Dickinson).
Anesthesia. 1 mL of Narkamon, 0.2 mL of Xylazine and 9 mL of saline; Dose volume: 10 mL/kg body weight.
Inoculum preparation for intramuscular infection. The strain was streaked out onto MH agar. On the following day Mueller-Hinton broth was inoculated with several colonies of Klebsiella pneumoniae and incubated at 37° C. in an orbital shaker until log phase of growth was reached (OD600=0.6). Log bacteria was centrifuged and suspended in equal volume of sterile PBS and subsequently diluted to obtain a bacterial suspension of adequate inoculum size.

Series [2] is described as follows: Maximum tolerated dose (MTD) / acute toxicity study, IV. The series is classed as in vivo. The following applies: for MTD at 4 days / LD50 at 4 days: male, CD (Sprague Dawley), rat, in vivo, iv; for LD50 at 4 days / LD50: rats, one-time IV dose over 15 min. Here is the method:
4.4 Maximum Tolerated Dose (MTD) Study in Male CD (Sprague Dawley) Rats.
The study was performed in an AAALAC I—approved Facility. The standard study plan relating to this study was reviewed by the Ethical Committee (CARE-Zagreb) as required by International Laws/Regulations and Croatian Low on Animal Welfare (“The Animal Protection Act”, Official Gazette, NN 37/13) and Animal Welfare Officer.
In vivo studies were performed by Fidelta (Zagreb, Croatia) and all rats (Sprague Dawley) were obtained from Charles River Laboratories (Italy). Three compounds, i.e. ABX5006, ABX5020 and ABX5039 were tested to determine the MTD of the test articles in male CD (Sprague Dawley) rats following a one-time dose (IV).
MTD study: Pathogen-free male CD (Sprague Dawley) rats (3 rats per dosing group) weighing 225-260 g were used. Five different dosing groups (50 mg/kg, 75 mg/kg, 100 mg/kg, 150 mg/kg and 200 mg/kg) were used and the test article was administered intravenous over 15 min (slow injection, 5 mL/kg). […] Clinical signs, body weight, food consumption and mortality was recorded during the in-life phase of the study. All animals surviving to the end of the 4 day monitoring period were euthanized on day 4. Terminal studies included gross necropsy and organ weight recording of all animals.
Supplies/Chemicals. Sterile, single used needles (25 G Microlance, REF300400, Becton Dickinson); 2 mL syringes (REF300185, Becton Dickinson); Phosphate buffered saline (P3813, Sigma Aldrich); isoflurane anesthesia (Abbott, Netherlands)
Anesthesia. Animals were deeply anaesthetized using isoflurane and subsequently exsangunated for full post mortem examination.

Series [3] relates to Escherichia coli (ATCC 700336). The series can be described thus: MIC against the strain of the urinary tract infection model. The series is classed as cell-based. The following applies: ATCC700336.

Values after ≈ are worked out from the molar mass of the structure shown. Like-named read-outs stand apart in the source and are kept apart here.

`N=C(NCCN)NC1C(O)[C@@H](CO)OC(OC2C(F)[C@H](O[C@H]3OC(CN)[C@@H](O)CC3N)C(N)C[C@H]2NC(=O)[C@@H](O)CCN)[C@@H]1O` (some centres unmarked) [ABX5020, Tobra-AHB-F-Gua-2-amino-ethyl]: the “Avg. Log CFU/g thigh” value is on record as 6.18 Log CFU/g in series [1] (dose 16 mg/kg, SC) and 5.29 Log CFU/g in series [1] (dose 64 mg/kg, SC). Besides, the “decrease in CFU number in thighs in comparison to the vehicle control group” value (from here on “decrease in CFU number in thighs”) in series [1] is listed as 2.7-3.6 log 10. In series [1] (infected neutropenic mice, SC), the “animals euthanized prior to second dose due to weak clinical condition” value is on record as “Two animals”.

As a reminder, the MTD is the largest dose that counted as tolerated. A low value points to poorer tolerability. One may read the LD50 as the dose at which mortality reaches 50%. A high value points to a less toxic substance. The MIC is the lowest concentration that inhibits growth of the organism. On to `N=C(N)NC1C(O)[C@@H](CO)OC(OC2C(F)[C@H](O[C@H]3OC(CN)[C@@H](O)CC3N)C(N)C[C@H]2NC(=O)[C@@H](O)CCN)[C@@H]1O` (some centres unmarked) [ABX5006, Tobra-AHB-F-Gua], for which, in series [1] (dose 16 mg/kg, SC), the “Avg. Log CFU/g thigh” value is listed as 6.08 Log CFU/g. Besides, in series [1] (dose 64 mg/kg, SC), the “Avg. Log CFU/g thigh” value is recorded as 5.69 Log CFU/g. Further, the “decrease in CFU number in thighs” value in series [1] is reported as 2.8-3.2 log 10. In series [2], the MTD at 4 days is 150 mg/kg, the LD50 at 4 days is > 200 mg/kg and the LD50 was >200 mg/kg. The MIC in series [3] stood at 0.25 µg/mL (≈ 0.408 µM).

As for `N=C(NC[C@@H]1CCNC1)NC1[C@@H](O)C(OC2[C@@H](F)[C@H](O[C@H]3OC(CN)[C@@H](O)CC3N)C(N)C[C@H]2NC(=O)[C@@H](O)CCN)O[C@H](CO)[C@H]1O` (stereo partly drawn) [ABX5039, Tobra-AHB-F-Gua (R) pyrrolidine-3-ylmethyl], in series [2], the MTD at 4 days was found to be 75 mg/kg, the LD50 at 4 days is > 75 mg/kg and the LD50 was 75 to 100 mg/kg.

On to `N=C(NC[C@@H]1CCCN1)NC1[C@@H](O)C(OC2[C@@H](F)[C@H](O[C@H]3OC(CN)[C@@H](O)CC3N)C(N)C[C@H]2NC(=O)[C@@H](O)CCN)O[C@H](CO)[C@H]1O` (stereo partly drawn) [ABX5026, Tobra-AHB-F-Gua (S) pyrrolidine-2-yl-methyl], for which, in series [2], the MTD at 4 days was found to be 75 mg/kg and the 50% lethal dose (LD50) at 4 days is > 75 mg/kg. The same compound yielded an MIC in series [3] of 1 µg/mL (≈ 1.44 µM).

Turning to `NCC[C@H](O)C(=O)N[C@@H]1C[C@H](N)[C@@H](O[C@H]2O[C@H](CN)[C@@H](O)[C@H](O)[C@H]2O)[C@H](O)[C@H]1O[C@H]1O[C@H](CO)[C@@H](O)[C@H](N)[C@H]1O` [Amikacin, amikacin, reference compound], the “Avg. Log CFU/g thigh” value in series [1] (dose 16 mg/kg, SC) is 8.19 Log CFU/g; in series [1] (dose 64 mg/kg, SC) it was 7.24 Log CFU/g. The “decrease in CFU number in thighs” value in series [1] was “did not significantly decrease CFU counts in thighs”.
